This note sets out measurements from EP0687685A1, “PHYSIOLOGICALLY ACTIVE PEPTIDE” (TEIJIN LIMITED, priority 1993, dated 1994).

Usually pIC50 stands for the IC50 on a negative log10 scale, so that one unit is a factor of ten. A lower pIC50 goes with a large IC50. Usually inhibition stands for how much of the control response was suppressed.

pIC50: −log10 of the molar value. Positions of bridges follow the written chain, without caps; N, C: chain ends. Residues, ends and D or L forms follow the SMILES beside them. *: point of attachment. Mob = COc1ccc(C*)cc1

Experiment [1] concerns the target T1, human type II PLA₂ (Homo sapiens, UniProt P14555).
T1 construct: made in house; host or cells: Sf9 insect cells, baculovirus (AcNPV), vector pAcTJI1; purified from culture supernatant
T1 sequence (P14555 21-144): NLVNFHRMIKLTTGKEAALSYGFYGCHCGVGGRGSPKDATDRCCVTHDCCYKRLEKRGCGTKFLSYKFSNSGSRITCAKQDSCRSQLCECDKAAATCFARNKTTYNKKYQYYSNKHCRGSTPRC
Description: Inhibition of binding between heparin and human II-type PLA₂ (heparin-bound plate, biotinated PLA₂). As for the experimental part:
500 µg of human type II (non-pancreatic) purified in Reference Example 1 was reacted with 2 ml of a solution of 5 mM sulfosuccinyl 6-(biotinamide hexose) in 0.1M NaHCO₃ at a room temperature for one hour, and the product was purified by a heparin Sepharose column to obtain biotinated human type II PLA₂.
50 µl of a phosphate buffered saline (PBS) containing 50 µg/ml poly-L-lysine was added to each well of a 96-well ELISA plate, and after incubation at room temperature for an hour, each well was twice washed with PBS, 50 µl of PBS solution containing 20 µg/ml heparin was added to each well, and a reaction was further carried out at a room temperature for an hour. Each well was twice washed with PBS, 200 µl of PBS solution containing 30 mg/ml bovine serum albumin (BSA) was added to each well, and after reaction at 37°C for an hour, the plate was stored at 4°C.
To each well of a peparin-bound plate prepared in Reference Example 3, 50 µl of a solution containing a peptide obtained in Examples 1 to 10 was added. After incubating at room temperature for 45 minutes, 50 µg/ml biotinated human II-type PLA₂ obtained in Example 2 was added thereon, and reaction was further carried out at room temperature for an hour. Each well was washed three times with PBS containing 0.05% Tween 20, 50 µl of a 3% BSA/PBS solution containing alkaline phosphatase-conjugated streptoavidin (Taga, ×2000 dilution) was added thereon, and a reaction was carried out at a room temperature for an hour. Each well was washed three times with PBS containing 0.05% Tween 20, 100 µl of a 1 mM p-nitrophenylphosphate/1M ethanolamine aqueous solution (pH 9.8) was added thereon, and a reaction was carried out at room temperature for an hour. Absorption of reaction mixture was measured at 405 nm using a microplate reader (Molecular Device Inc). A result is shown in Fig. 9, and IC₅₀ (µM) was also obtained.

For experiment [2], the target named is T1, human type II PLA₂. Description: Enzyme inhibition of human type II PLA₂ in the presence of heparin, radiolabeled synthetic phospholipid (method of Dole). The class given is biochemical.

Molecule `COc1ccc(CSC[C@H](NC(=O)CNC(=O)[C@H](CCCNC(=N)N)NC(=O)[C@@H](N)CCCCN)C(=O)NCC(=O)N[C@H](C(=O)N[C@@H](CCCCN)C(=O)N[C@@H](Cc2ccccc2)C(=O)N[C@@H](CC(C)C)C(=O)N[C@@H](CO)C(=O)N[C@@H](Cc2ccc(O)cc2)C(=O)N[C@@H](CCCCN)C(=O)N[C@@H](Cc2ccccc2)C(=O)N[C@@H](CO)C(=O)N[C@@H](CS)C(=O)O)[C@@H](C)O)cc1` [Peptide (1)] (H-KRGC(Mob)GTKFLSYKFSC-OH) gave a pIC50 in experiment [1] of 5.85.

In experiment [1], `COc1ccc(CSC[C@H](NC(=O)[C@H](CO)NC(=O)[C@H](Cc2ccccc2)NC(=O)[C@H](CCCCN)NC(=O)[C@H](Cc2ccc(O)cc2)NC(=O)[C@H](CO)NC(=O)[C@H](CC(C)C)NC(=O)[C@H](Cc2ccccc2)NC(=O)[C@H](CCCCN)NC(=O)[C@@H](NC(=O)CNC(=O)[C@H](CS)NC(=O)CNC(=O)[C@H](CCCNC(=N)N)NC(=O)[C@@H](N)CCCCN)[C@@H](C)O)C(=O)O)cc1` [Peptide (3)] (H-KRGCGTKFLSYKFSC(Mob)-OH) had a pIC50 of 5.57.

Turning to `COc1ccc(CSC[C@H](NC(=O)CNC(=O)[C@H](CCCNC(=N)N)NC(=O)[C@@H](N)CCCCN)C(=O)NCC(=O)N[C@H](C(=O)N[C@@H](CCCCN)C(=O)N[C@@H](Cc2ccccc2)C(=O)N[C@@H](CC(C)C)C(=O)N[C@@H](CO)C(=O)N[C@@H](Cc2ccc(O)cc2)C(=O)N[C@@H](CCCCN)C(=O)N[C@@H](Cc2ccccc2)C(=O)N[C@@H](CO)C(=O)N[C@@H](CS)C(=O)O)[C@@H](C)O)cc1` [Peptide (6)] (H-KRGC(Mob)GTKFLSYKFSC-OH; N-terminus and C-terminus assumed), in experiment [1], the “inhibitory activity to binding of human type II PLA₂ to heparin” value is recorded as “strong inhibitory activity”.

As for `CC(C)C[C@@H]1NC(=O)[C@H](Cc2ccccc2)NC(=O)[C@H](CCCCN)NC(=O)[C@H]([C@@H](C)O)NC(=O)CNC(=O)[C@@H](NC(=O)CNC(=O)[C@H](CCCNC(=N)N)NC(=O)[C@@H](N)CCCCN)CSSC[C@@H](C(=O)O)NC(=O)[C@H](CO)NC(=O)[C@H](Cc2ccccc2)NC(=O)[C@H](CCCCN)NC(=O)[C@H](Cc2ccc(O)cc2)NC(=O)[C@H](CO)NC1=O` [Peptide (20)] (H-KRGCGTKFLSYKFSC-OH; disulfide 4-15 (inferred); N-terminus and C-terminus assumed), the “inhibitory activity to binding of human type II PLA₂ to heparin” value in experiment [1] was “strong inhibitory activity”. Also, the “inhibitory activity to type II PLA₂ enzyme” value in experiment [2] (in the presence of heparin) is reported as “inhibitory activity”. For the same molecule, the inhibition at 1 µg/mL in experiment [2] (peptide 1 µg/ml, heparin 50 µg/ml, PLA₂ enzyme 200 ng/ml) came to 10%. In addition, the remaining activity at 1 µg/mL in experiment [2] (peptide 1 µg/ml, heparin 50 µg/ml, PLA₂ enzyme 200 ng/ml, read-out: PLA₂enzyme activity (%)) was found to be 90%. Moreover, in experiment [2] (peptide 5 µg/ml, heparin 50 µg/ml, PLA₂ enzyme 200 ng/ml), the inhibition at 5 µg/mL turned out to be 59%. Further, the remaining activity at 5 µg/mL in experiment [2] (peptide 5 µg/ml, heparin 50 µg/ml, PLA₂ enzyme 200 ng/ml, read-out: PLA₂enzyme activity (%)) was 41%. Besides, in experiment [2] (peptide 10 µg/ml, heparin 50 µg/ml, PLA₂ enzyme 200 ng/ml), the inhibition at 10 µg/mL came to 72%. The remaining activity at 10 µg/mL in experiment [2] (peptide 10 µg/ml, heparin 50 µg/ml, PLA₂ enzyme 200 ng/ml, read-out: PLA₂enzyme activity (%)) was determined as 28%. Besides, the inhibition at 50 µg/mL in experiment [2] (peptide 50 µg/ml, heparin 50 µg/ml, PLA₂ enzyme 200 ng/ml) worked out at 82%. Also, the remaining activity at 50 µg/mL in experiment [2] (peptide 50 µg/ml, heparin 50 µg/ml, PLA₂ enzyme 200 ng/ml, read-out: PLA₂enzyme activity (%)) turned out to be 18%. For the same molecule, the inhibition at 100 µg/mL in experiment [2] (peptide 100 µg/ml, heparin 50 µg/ml, PLA₂ enzyme 200 ng/ml) was found to be 90%. The remaining activity at 100 µg/mL in experiment [2] (peptide 100 µg/ml, heparin 50 µg/ml, PLA₂ enzyme 200 ng/ml, read-out: PLA₂enzyme activity (%)) was 10%.
